Drawing on patent publication US11180474B2 (BRISTOL-MYERS SQUIBB COMPANY, priority 2016, dated 2021), this text covers IC50 for 16 compounds.

For one experiment, the target named is T1, human TLR7 (Homo sapiens, UniProt Q9NYK1).
T1 construct: host or cells: HEK-Blue cells
T1 sequence (Q9NYK1 27-1049): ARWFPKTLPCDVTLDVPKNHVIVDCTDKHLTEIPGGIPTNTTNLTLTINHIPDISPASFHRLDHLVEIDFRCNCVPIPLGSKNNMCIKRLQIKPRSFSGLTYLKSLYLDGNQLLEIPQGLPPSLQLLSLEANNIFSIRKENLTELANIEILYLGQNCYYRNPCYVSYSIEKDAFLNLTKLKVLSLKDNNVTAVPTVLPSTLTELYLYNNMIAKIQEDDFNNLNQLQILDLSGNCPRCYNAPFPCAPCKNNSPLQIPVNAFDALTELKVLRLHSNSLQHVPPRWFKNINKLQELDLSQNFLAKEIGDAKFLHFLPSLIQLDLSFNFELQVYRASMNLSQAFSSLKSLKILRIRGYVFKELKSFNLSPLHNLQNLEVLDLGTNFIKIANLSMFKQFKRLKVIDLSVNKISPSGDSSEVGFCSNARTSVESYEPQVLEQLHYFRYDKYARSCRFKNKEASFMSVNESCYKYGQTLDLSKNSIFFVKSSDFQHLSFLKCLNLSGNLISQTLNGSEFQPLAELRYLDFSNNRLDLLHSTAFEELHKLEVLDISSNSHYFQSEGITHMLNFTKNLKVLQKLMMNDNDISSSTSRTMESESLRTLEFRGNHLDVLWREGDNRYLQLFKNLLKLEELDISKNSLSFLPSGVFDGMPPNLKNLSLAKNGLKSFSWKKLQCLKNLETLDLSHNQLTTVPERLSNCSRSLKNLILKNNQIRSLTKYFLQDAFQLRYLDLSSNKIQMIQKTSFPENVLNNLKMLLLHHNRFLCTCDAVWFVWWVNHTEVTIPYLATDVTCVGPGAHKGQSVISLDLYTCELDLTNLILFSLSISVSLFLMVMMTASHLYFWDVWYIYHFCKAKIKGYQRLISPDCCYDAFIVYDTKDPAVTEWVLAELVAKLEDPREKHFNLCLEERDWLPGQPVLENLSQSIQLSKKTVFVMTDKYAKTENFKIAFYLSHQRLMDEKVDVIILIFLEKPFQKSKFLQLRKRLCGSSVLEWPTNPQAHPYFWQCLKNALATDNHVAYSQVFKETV
In words: TLR7 inhibition reporter assay (HEK-Blue cells, SEAP reporter, gardiquimod stimulation). In kind it is cell-based. Conditions: HEK-Blue cells overexpressing human TLR7, gardiquimod 7.5 μM. In a few lines:
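HEK-Blue reporter cells (15,000/well TLR7, 20,000 TLR8) exposed to compound over 0.05 nM–50 μM, agonist-stimulated (R848 for TLR8, gardiquimod for TLR7), 22 h at 37 °C, 5% CO2. SEAP read with HEK-Blue Detection; % inhibition relative to agonist-plus-DMSO and known-inhibitor controls.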
On the technique in general: A reporter such as luciferase makes a cellular process visible.

The next experiment addresses T2, human TLR9 (Homo sapiens, UniProt Q9NR96).
T2 construct: host or cells: HEK-Blue cells
T2 sequence (Q9NR96 26-1032): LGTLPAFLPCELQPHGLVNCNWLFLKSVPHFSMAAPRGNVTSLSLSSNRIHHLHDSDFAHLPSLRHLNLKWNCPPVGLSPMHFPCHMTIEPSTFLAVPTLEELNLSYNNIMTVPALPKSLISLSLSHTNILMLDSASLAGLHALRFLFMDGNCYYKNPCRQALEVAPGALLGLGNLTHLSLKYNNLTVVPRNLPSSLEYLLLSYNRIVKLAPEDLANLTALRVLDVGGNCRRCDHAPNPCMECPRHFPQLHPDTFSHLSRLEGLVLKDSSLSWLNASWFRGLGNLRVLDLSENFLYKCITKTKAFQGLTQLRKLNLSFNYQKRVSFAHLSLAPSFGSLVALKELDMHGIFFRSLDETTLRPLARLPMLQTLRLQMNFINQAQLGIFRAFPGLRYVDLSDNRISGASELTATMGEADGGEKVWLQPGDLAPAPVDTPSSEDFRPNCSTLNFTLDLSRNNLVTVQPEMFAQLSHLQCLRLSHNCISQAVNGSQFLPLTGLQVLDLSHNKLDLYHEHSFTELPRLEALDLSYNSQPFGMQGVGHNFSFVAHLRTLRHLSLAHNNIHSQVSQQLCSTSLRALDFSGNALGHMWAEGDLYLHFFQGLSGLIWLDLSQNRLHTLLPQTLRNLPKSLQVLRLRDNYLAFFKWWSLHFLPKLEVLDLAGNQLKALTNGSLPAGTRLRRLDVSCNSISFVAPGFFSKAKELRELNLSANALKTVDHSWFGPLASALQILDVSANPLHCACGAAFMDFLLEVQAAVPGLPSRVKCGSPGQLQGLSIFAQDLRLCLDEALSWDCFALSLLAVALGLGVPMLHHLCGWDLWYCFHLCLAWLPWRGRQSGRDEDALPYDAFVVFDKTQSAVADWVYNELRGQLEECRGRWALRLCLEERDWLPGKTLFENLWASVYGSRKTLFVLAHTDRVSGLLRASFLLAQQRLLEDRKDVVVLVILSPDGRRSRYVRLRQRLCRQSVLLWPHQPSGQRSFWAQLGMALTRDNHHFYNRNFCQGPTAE
Kind of experiment: TLR9 inhibition reporter assay (HEK-Blue cells, SEAP reporter, ODN2006 stimulation). The experiment is classed as cell-based. The following applies: HEK-Blue cells overexpressing human TLR9, ODN2006 5 nM. In a few lines: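 Agonists used: gardiquimod 7.5 μM (TLR7), R848 15.9 μM (TLR8), ODN2006 5 nM (TLR9), added after 30 min room-temperature compound pre-treatment (0.05 nM–50 μM) of receptor-overexpressing HEK-Blue cells. SEAP reporter (NF-κB/AP-1 driven) read after 22 h at 37 °C; inhibition scaled between agonist+DMSO and reference-inhibitor wells.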

In general, IC50 refers to the concentration that inhibits the measured activity by half. Higher therefore signals weaker potency. In the case of `COc1ccc(-c2[nH]c3ccc(C4CCN(CC(=O)N5CCN(C)CC5)CC4)cc3c2C(C)C)cc1OC` [Example 274, 2-(4-(2-(3,4-dimethoxyphenyl)-3-isopropyl-1H-indol-5-yl)piperidin-1-yl)-1-(4-methylpiperazin-1-yl) ethan-1-one], the concentration for half-maximal inhibition (IC50) at human TLR7 stood at 68 nM; on human TLR9, 829 nM.

On to `CCN(CC)C(=O)C1CCCN(C(=O)CN2CCC(c3ccc4[nH]c(-c5ccc(OC)c(OC)c5)c(C(C)C)c4c3)CC2)C1` (centres unmarked) [Example 272, 1-(2-(4-(2-(3,4-dimethoxyphenyl)-3-isopropyl-1H-indol-5-yl)piperidin-1-yl)acetyl)-N,N-diethylpiperidine-3-carboxamide], for which the concentration for half-maximal inhibition (IC50) on human TLR7 stood at 83 nM; against human TLR9, 3400 nM.

With `COc1ccc(-c2[nH]c3ccc(C4CCN(C5C[C@H]6CC[C@@H](C5)N6C)CC4)cc3c2C)cc1OC` (stereo partly drawn) [Example 21, 2-(3,4-dimethoxyphenyl)-3-methyl-5-(1-((1R,5S)-8-methyl-8-azabicyclo[3.2.1]octan-3-yl)piperidin-4-yl)-1H-indole], the results for the IC50 on human TLR7 and on human TLR9 were 72 nM and 83 nM, respectively.

With `COc1ccc(-c2[nH]c3ccc(C4CCN(C(=O)CNC5CCC(C(C)(C)O)CC5)CC4)cc3c2C(C)C)cc1OC` (centres unmarked) [Example 245, 1-(4-(2-(3,4-dimethoxyphenyl)-3-isopropyl-1H-indol-5-yl)piperidin-1-yl)-2-((4-(2-hydroxypropan-2-yl)cyclohexyl)amino)ethan-1-one], the results for the 50% inhibitory concentration (IC50) against human TLR7 and at human TLR9 were 26 nM and 1140 nM, respectively.

Consider `COc1ccc(-c2[nH]c3ccc(C4CCN(C(=O)CN5CCC[C@H](C(=O)N6CCN(Cc7ccc(Br)cc7)CC6)C5)CC4)cc3c2C(C)C)cc1OC` [Example 294, (S)-2-(3-(4-(4-bromobenzyl)piperazine-1-carbonyl)piperidin-1-yl)-1-(4-(2-(3,4-dimethoxyphenyl)-3-isopropyl-1H-indol-5-yl)piperidin-1-yl)ethan-1-one], for which the half-inhibitory concentration (IC50) on human TLR7 is 1200 nM; on human TLR9 it was 2220 nM.

`COc1ccc(-c2[nH]c3ccc(C4CCN(CC(=O)NC5CCN(C(C)C)CC5)CC4)cc3c2C(C)C)cc1OC` [Example 273, 2-(4-(2-(3,4-dimethoxyphenyl)-3-isopropyl-1H-indol-5-yl)piperidin-1-yl)-N-(1-isopropylpiperidin-4-yl)acetamide]: the results for the IC50 at human TLR7 and against human TLR9 were 7 nM and 565 nM, respectively.

Turning to `COc1ccc(-c2[nH]c3ccc(C4CCN(C(=O)CN5CCN(C(C)C)CC5)CC4)cc3c2C(C)C)cc1OC` [Example 240, 1-(4-(2-(3,4-dimethoxyphenyl)-3-isopropyl-1H-indol-5-yl)piperidin-1-yl)-2-(4-isopropylpiperazin-1-yl)ethan-1-one], the IC50 on human TLR7 was 11 nM; against human TLR9 it was 1390 nM.

For the compound `COc1ccc(-c2[nH]c3ccc(C4CCN(C(=O)CN5CCC[C@H](C(=O)NC(C)C)C5)CC4)cc3c2C(C)C)cc1OC` [Example 285, (S)-1-(2-(4-(2-(3,4-dimethoxyphenyl)-3-isopropyl-1H-indol-5-yl)piperidin-1-yl)-2-oxoethyl)-N-isopropylpiperidine-3-carboxamide], the results for the IC50 at human TLR7 and on human TLR9 were 55 nM and 4950 nM, respectively.

Regarding `CCC(CO)NCC(=O)N1CCC(c2ccc3[nH]c(-c4ccc(OC)c(OC)c4)c(C(C)C)c3c2)CC1` (centres unmarked) [Example 233, 1-(4-(2-(3,4-dimethoxyphenyl)-3-isopropyl-1H-indol-5-yl)piperidin-1-yl)-2-((1-hydroxybutan-2-yl)amino)ethan-1-one], the IC50 was determined as 23 nM against human TLR7 and 877 nM against human TLR9.

Take `COc1ccc(-c2[nH]c3ccc(C4CCN(C(=O)CN5CCC[C@@H](C(=O)N6CCN(CCN7CCCC7)CC6)C5)CC4)cc3c2C(C)C)cc1OC` [Example 307, (R)-1-(4-(2-(3,4-dimethoxyphenyl)-3-isopropyl-1H-indol-5-yl)piperidin-1-yl)-2-(3-(4-(2-(pyrrolidin-1-yl)ethyl)piperazine-1-carbonyl)piperidin-1-yl)ethan-1-one]: the 50% inhibitory concentration (IC50) on human TLR7 was 52 nM; on human TLR9 it was 579 nM.

Take `COc1ccc(-c2[nH]c3ccc(C4CCN(C(=O)CN5CCC[C@H](C(=O)N6CCC(CCO)CC6)C5)CC4)cc3c2C(C)C)cc1OC` [Example 291, (S)-1-(4-(2-(3,4-dimethoxyphenyl)-3-isopropyl-1H-indol-5-yl)piperidin-1-yl)-2-(3-(4-(2-hydroxyethyl)piperidine-1-carbonyl)piperidin-1-yl)ethan-1-one]: the figures for the IC50 against human TLR7 and at human TLR9 were 36 nM and 2310 nM, respectively.

`COc1ccc(-c2[nH]c3ccc(C4CCN(C(=O)CNC[C@H](O)CO)CC4)cc3c2C(C)C)cc1OC` [Example 235, (S)-2-((2,3-dihydroxypropyl)amino)-1-(4-(2-(3,4-dimethoxyphenyl)-3-isopropyl-1H-indol-5-yl)piperidin-1-yl)ethan-1-one]: the IC50 on human TLR7 worked out at 15 nM; against human TLR9, 774 nM.

As to `COc1ccc(-c2[nH]c3ccc(C4CCN(C(=O)CN5CCC[C@H](C(=O)N6CCCC6)C5)CC4)cc3c2C(C)C)cc1OC` [Example 287, (S)-1-(4-(2-(3,4-dimethoxyphenyl)-3-isopropyl-1H-indol-5-yl)piperidin-1-yl)-2-(3-(pyrrolidine-1-carbonyl)piperidin-1-yl)ethan-1-one], the IC50 against human TLR7 was determined as 38 nM; against human TLR9, 2280 nM.

As to `CCN(CC)C(=O)C1CCCN(CC(=O)N2CCC(c3ccc4[nH]c(-c5ccc(OC)c(OC)c5)c(C(C)C)c4c3)CC2)C1` (centres unmarked) [Example 248, 1-(2-(4-(2-(3,4-dimethoxyphenyl)-3-isopropyl-1H-indol-5-yl)piperidin-1-yl)-2-oxoethyl)-N,N-diethylpiperidine-3-carboxamide], the half-maximal inhibitory concentration (IC50) against human TLR7 came to 33 nM; against human TLR9, 163 nM.

Take `COc1ccc(-c2[nH]c3ccc(C4CCN(C(=O)CN5CCC[C@@H](C(=O)NCC(N)=O)C5)CC4)cc3c2C(C)C)cc1OC` [Example 309, (R)—N-(2-amino-2-oxoethyl)-1-(2-(4-(2-(3,4-dimethoxyphenyl)-3-isopropyl-1H-indol-5-yl)piperidin-1-yl)-2-oxoethyl)piperidine-3-carboxamide]: the half-inhibitory concentration (IC50) against human TLR7 came to 31 nM; on human TLR9, 6920 nM.

With `COc1ccc(-c2[nH]c3ccc(C4CCN(CC(=O)N(C)C)CC4)cc3c2C(C)C)cc1OC` [Example 312, 2-(4-(2-(3,4-dimethoxyphenyl)-3-isopropyl-11H-indol-5-yl)piperidin-1-yl)-N,N-dimethylacetamide], the IC50 on human TLR7 amounted to 8 nM; on human TLR9 it was 1370 nM.
